According to patent US11964973B2 (priority 2019, dated 2024):
pEC50, pIC50: −log10 of the molar value.

biological target: human DGKζ (Homo sapiens (Human), UniProt Q13574); experiment: biochemical; format: biochemical; settings: Table A; liposome (LIPGLO) assay; read-out: DGKζ
Sequence (Q13574 whole entry, looked up): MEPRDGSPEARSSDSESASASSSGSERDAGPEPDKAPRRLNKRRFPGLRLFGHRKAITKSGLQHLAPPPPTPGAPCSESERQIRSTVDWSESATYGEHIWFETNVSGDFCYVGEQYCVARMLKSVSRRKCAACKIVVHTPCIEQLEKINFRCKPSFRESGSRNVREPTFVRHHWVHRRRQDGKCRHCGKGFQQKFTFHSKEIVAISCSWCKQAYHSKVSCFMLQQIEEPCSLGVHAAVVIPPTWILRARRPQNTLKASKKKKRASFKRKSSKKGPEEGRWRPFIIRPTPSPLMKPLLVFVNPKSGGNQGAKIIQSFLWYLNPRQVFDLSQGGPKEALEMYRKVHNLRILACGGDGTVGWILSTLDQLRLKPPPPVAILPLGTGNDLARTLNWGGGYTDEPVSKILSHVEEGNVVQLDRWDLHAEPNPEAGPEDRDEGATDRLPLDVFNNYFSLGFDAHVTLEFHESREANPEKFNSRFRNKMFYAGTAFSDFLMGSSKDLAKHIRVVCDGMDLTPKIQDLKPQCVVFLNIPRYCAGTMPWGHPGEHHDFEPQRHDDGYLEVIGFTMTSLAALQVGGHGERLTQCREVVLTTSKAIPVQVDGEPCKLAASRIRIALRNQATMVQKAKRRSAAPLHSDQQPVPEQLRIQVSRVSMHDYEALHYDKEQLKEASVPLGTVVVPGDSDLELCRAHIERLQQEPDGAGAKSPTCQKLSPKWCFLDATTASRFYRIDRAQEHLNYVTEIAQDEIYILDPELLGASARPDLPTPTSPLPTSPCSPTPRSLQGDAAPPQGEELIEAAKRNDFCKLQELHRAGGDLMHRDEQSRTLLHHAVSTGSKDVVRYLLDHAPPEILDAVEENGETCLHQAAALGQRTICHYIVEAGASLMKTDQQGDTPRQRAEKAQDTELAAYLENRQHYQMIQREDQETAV

SMILES	pIC50
CC[C@@H]1CN(c2cc(=O)n(C)c3ccc(C#N)nc23)CC[C@@H]1Oc1ccc(OC(C)C)cn1 [Example 203, 8-((3R,4S)-3-ethyl-4-((5-isopropoxypyridin-2-yl)oxy)piperidin-1-yl)-5-methyl-6-oxo-5,6-dihydro-1,5-naphthyridine-2-carbonitrile]	6.64
Cn1c(=O)nc(N2CC[C@@H](Oc3cccc(C(F)(F)F)c3)[C@H](O)C2)c2nc(C#N)ccc21 (single isomer, unassigned) [Example 273, (+/−)-trans-4-(3-hydroxy-4-(3-(trifluoromethyl)phenoxy)piperidin-1-yl)-1-methyl-2-oxo-1,2-dihydropyrido[3,2-d]pyrimidine-6-carbonitrile]	5.33
CC[C@@H]1CN(c2cc(=O)n(C)c3ccc(C#N)nc23)CC[C@@H]1Oc1ccc(OC(C)C)cn1 [Example 204, 8-((3R,4S)-3-ethyl-4-((5-isopropoxypyridin-2-yl)oxy)piperidin-1-yl)-5-methyl-6-oxo-5,6-dihydro-1,5-naphthyridine-2-carbonitrile]	6.48
CC[C@@H]1CN(c2cc(=O)n(C)c3ccc(C#N)nc23)CC[C@H]1Oc1ccc(OC(C)C)cn1 [Example 192, 8-((3R,4R)-3-ethyl-4-((5-isopropoxypyridin-2-yl)oxy)piperidin-1-yl)-5-methyl-6-oxo-5,6-dihydro-1,5-naphthyridine-2-carbonitrile]	6.38

same assay, conditions: liposome (LIPGLO) assay; read-out: DGKζ LIPGLO IC50

SMILES	pIC50
CC[C@@H]1CN(c2cc(=O)n(C)c3ccc(C#N)nc23)CC[C@H]1Oc1ccc(OC(C)C)cc1 [Example 161, 8-((3R,4R)-3-ethyl-4-(4-isopropoxyphenoxy)piperidin-1-yl)-5-methyl-6-oxo-5,6-dihydro-1,5-naphthyridine-2-carbonitrile]	6.27

tested on: Human venous whole blood (IFN-γ); experiment: Human whole blood IFN-γ assay; format: cell-based; settings: Homo sapiens, 24 h, human whole blood, anti-CD3 plus anti-CD28, 24 hours; read-out: INFg Whole Blood Normalized Agonist EC50
Procedure: Assay 10: Human Whole Blood IFN-γ Assay
Human venous whole blood (22.5 μL per well), obtained from healthy donors, was pre-treated with compounds for one hour at 37° C. in a humidified 95% air/5% CO2 incubator. The blood was stimulated with 2.5 μL anti-human CD3 and anti-CD28 mAb at a final concentration of 1 μg/mL each for 24 hours at 37° C. IFN-γ in the supernatants was measured using AlphLISA kit (Cat #AL217).

SMILES	pEC50
CC[C@@H]1CN(c2cc(=O)n(C)c3ccc(C#N)nc23)CC[C@H]1Oc1ccc(OC(C)C)cc1 [Example 161, 8-((3R,4R)-3-ethyl-4-(4-isopropoxyphenoxy)piperidin-1-yl)-5-methyl-6-oxo-5,6-dihydro-1,5-naphthyridine-2-carbonitrile]	5.62
CCc1ccc(O[C@@H]2CCN(c3cc(=O)n(C)c4ccc(C#N)nc34)C[C@H]2C)cc1 (racemic) [Example 110, 8-((3R,4R)-4-(4-ethylphenoxy)-3-methylpiperidin-1-yl)-5-methyl-6-oxo-5,6-dihydro-1,5-naphthyridine-2-carbonitrile]	5.52

same assay, conditions: Homo sapiens, human whole blood IFN-γ; read-out: INFg Whole Blood

SMILES	pEC50
CC[C@@H]1CN(c2cc(=O)n(C)c3ccc(C#N)nc23)CC[C@H]1Oc1ccc(OC(C)C)cn1 [Example 192, 8-((3R,4R)-3-ethyl-4-((5-isopropoxypyridin-2-yl)oxy)piperidin-1-yl)-5-methyl-6-oxo-5,6-dihydro-1,5-naphthyridine-2-carbonitrile]	6.54
COc1ccnc(O[C@H]2CCN(c3cc(=O)n(C)c4ccc(C#N)nc34)C[C@H]2C)n1 [Example 218, 8-((3R,4S)-4-((4-methoxypyrimidin-2-yl)oxy)-3-methylpiperidin-1-yl)-5-methyl-6-oxo-5,6-dihydro-1,5-naphthyridine-2-carbonitrile]	4.70

tested on: human venous whole blood, CD8 positive population (pERK); experiment: DGK human whole blood pERK assay; format: cell-based; settings: Homo sapiens, CD8 positive, human whole blood pERK; read-out: DGK HWB
Procedure: Assay 11: DGK Human Whole Blood pERK Assay
Human whole blood ERK phosphorylation assay was performed with human venous whole blood obtained from healthy donors (drawn with Heparin as anti-coagulant). […] Heparinized human whole blood was added to the compound plate at 9 μL per well and incubated for one hour at 37° C. in a humidified 95%, air/5% CO2 incubator. After one hour of compound incubation, 1 μL of human anti-CD3 antibody (in-house) in the presence of cross-linking antibody goat anti-mouse IgG (4 μg/mL) was added to the well at 1 μg/mL final concentration for stimulation of pathway and additionally incubated for 15 minutes at 37° C. […] Samples analyzed using the Intellicyt® iQue Screener PLUS. The pERK activation was quantitated by the percentage of pERK positive population within CD8 positive population.

SMILES	pEC50
CCO[C@H]1CN(c2cc(=O)n(C)c3ccc(C#N)nc23)CC[C@H]1Oc1cccc(C(F)(F)F)c1 (relative stereo) [Example 369, cis-8-(3-Ethoxy-4-(3-(trifluoromethyl)phenoxy)piperidin-1-yl)-5-methyl-6-oxo-5,6-dihydro-1,5-naphthyridine-2-carbonitrile]	6.21
CC[C@@H]1CN(c2cc(=O)n(C)c3ccc(C#N)nc23)[C@H](C)C[C@@H]1Oc1cccc(C(F)(F)F)c1 [Example 309, 8-((2R,4S,5R)-5-ethyl-2-methyl-4-(3-(trifluoromethyl)phenoxy)piperidin-1-yl)-5-methyl-6-oxo-5,6-dihydro-1,5-naphthyridine-2-carbonitrile]	5.40
CCO[C@H]1CN(c2cc(=O)n(C)c3ccc(C#N)nc23)CC[C@@H]1Oc1ccc(S(C)(=O)=O)cc1 [Example 354, 8-((3S,4S)-3-ethoxy-4-(4-(methylsulfonyl)phenoxy)piperidin-1-yl)-5-methyl-6-oxo-5,6-dihydro-1,5-naphthyridine-2-carbonitrile]	4.70
CC1CN(c2cc(=O)n(C)c3ccc(C#N)nc23)CCC1N(C)Cc1ccc(F)cc1 (single isomer, unassigned) [Example 327, -(4-((4-fluorobenzyl)(methyl)amino)-3-methylpiperidin-1-yl)-5-methyl-6-oxo-5,6-dihydro-1,5-naphthyridine-2-carbonitrile]	5.72
CCO[C@H]1CN(c2cc(=O)n(C)c3ccc(C#N)nc23)CC[C@@H]1Oc1ccc(OC(C)C)cc1 [Example 347, 8-((3S,4S)-3-ethoxy-4-(4-isopropoxyphenoxy)piperidin-1-yl)-5-methyl-6-oxo-5,6-dihydro-1,5-naphthyridine-2-carbonitrile]	6.46

same assay, conditions: Homo sapiens, CD8 positive, read-out: DGK HWB, human whole blood pERK

pEC50	SMILES
6.17	CC[C@@H]1CN(c2cc(=O)n(C)c3ccc(C#N)nc23)[C@H](C)C[C@H]1Oc1ccc(OC(C)C)cn1 [Example 297, 8-((2R,4R,5R)-5-ethyl-4-((5-isopropoxypyridin-2-yl)oxy)-2-methylpiperidin-1-yl)-5-methyl-6-oxo-5,6-dihydro-1,5-naphthyridine-2-carbonitrile]
6.42	CC[C@@H]1CN(c2nc(=O)n(C)c3ccc(C#N)nc23)[C@H](C)C[C@H]1Oc1ccc(OC(C)C)cn1 [Example 303, 4-((2R,4R,5R)-5-ethyl-4-((5-isopropoxypyridin-2-yl)oxy)-2-methylpiperidin-1-yl)-1-methyl-2-oxo-1,2-dihydropyrido[3,2-d]pyrimidine-6-carbonitrile]
4.70	CC1CN(c2c(C#N)c(=O)n(C)c3ccc(C#N)nc23)CCC1N(C)C(=O)c1ccc(C(F)(F)F)cc1 (single isomer, unassigned) [Example 292, N-(1-(3,6-dicyano-1-methyl-2-oxo-1,2-dihydro-1,5-naphthyridin-4-yl)-3-methylpiperidin-4-yl)-N-methyl-4-(trifluoromethyl)benzamide]

SMILES	pEC50
CC(C)Oc1ccc(OC2C[C@H](C)N(c3nc(=O)n(C)c4ccc(C#N)nc34)C[C@@H]2C)nc1 (mixture of isomers) [Example 243, (±)-Cis-(-4-((5-isopropoxypyridin-2-yl)oxy)-2,5-dimethylpiperidin-1-yl)-1-methyl-2-oxo-1,2-dihydropyrido[3,2-d]pyrimidine-6-carbonitrile]	6.23

same assay, conditions: human whole blood pERK; read-out: DGK HWB

SMILES	pEC50
CCO[C@H]1CN(c2cc(=O)n(C)c3ccc(C#N)nc23)CC[C@@H]1Oc1cccc(OC(F)(F)F)c1 [Example 352, 8-((3S,4S)-3-ethoxy-4-(3-(trifluoromethoxy)phenoxy)piperidin-1-yl)-5-methyl-6-oxo-5,6-dihydro-1,5-naphthyridine-2-carbonitrile]	4.92
CCO[C@H]1CN(c2cc(=O)n(C)c3ccc(C#N)nc23)CC[C@@H]1Oc1nc2ccccc2s1 [Example 373]	5.80
CCO[C@H]1CN(c2cc(=O)n(C)c3ccc(C#N)nc23)CC[C@@H]1Oc1ccccc1C(F)(F)F [Example 345, 8-((3S,4S)-3-ethoxy-4-(2-(trifluoromethyl)phenoxy)piperidin-1-yl)-5-methyl-6-oxo-5,6-dihydro-1,5-naphthyridine-2-carbonitrile]	6.09
CCO[C@H]1CN(c2cc(=O)n(C)c3ccc(C#N)nc23)CC[C@@H]1Oc1nc2ccccc2s1 [Example 374]	4.70

same assay, conditions: read-out: DGK HWB; human whole blood pERK

pEC50	SMILES
4.70	CC1CN(c2c(C#N)c(=O)n(C)c3ccc(C#N)nc23)CCC1N(C)C(=O)c1ccc(C(F)(F)F)cc1 (single isomer, unassigned) [Example 293, N-(1-(3,6-dicyano-1-methyl-2-oxo-1,2-dihydro-1,5-naphthyridin-4-yl)-3-methylpiperidin-4-yl)-N-methyl-4-(trifluoromethyl)benzamide]
6.10	C[C@@H]1CN(c2nc(=O)n(C)c3ccc(C#N)nc23)[C@H](C)CC1Oc1cccc(C(F)(F)F)c1 (stereo partly drawn) [Example 257, 4-((2R,5R)-2,5-dimethyl-4-(3-(trifluoromethyl)phenoxy)piperidin-1-yl)-1-methyl-2-oxo-1,2-dihydropyrido[3,2-d]pyrimidine-6-carbonitrile]
